Laboratory results: US6177438A, “Morphinan derivatives and pharmaceutical use thereof” (priority 1993, dated 2001)
Counter-ions that a name gives are not always drawn.

Columns and labels:
[1] = tested on: cultured nerve cells (cerebral cortex); settings: 10 mM glutamic acid, 24 hours
[2] = tested on: cultured nerve cells (cerebral cortex); experiment: cells; settings: Rattus norvegicus, Cerebral cortex neuron, 24 h, read-out: ED50 (protection against glutamic acid toxicity)
[3] = tested on: extracted mouse vas deferens preparation; experiment: Opioid activity test using an extracted mouse vas deferens preparation (suppression of electrically induced contractions); parameters: species or system male ddy mouse; settings: electrical stimulus 0.1 Hz, 37° C.
Procedure: (§1) A male ddy mouse was used in this test. The vas deferens extracted from the animal was suspended in a Magnus tube filled with Krebes-Henseleit solution (NaCl 118 mM; KCl 4.7 mM; CaCl2 2.5 mM; KH2 PO4 1.1 mM; NaHCO3 25 mM; Glucose 11 mM) warmed to 37° C. and ventilated with 5% carbon dioxide and 95% oxygen. Electrical stimulus was performed at 0.1 Hz for 5.0 ms by means of ring-shaped platinum electrodes located above and below. Tissue contractions were recorded on a polygraph using an isometric transducer.
(§2) After adequately washing with nutrient solution and the contraction reaction stabilized, the μ agonist, naloxone, the δ agonist, NTI, or the κ agonist, norBNI, was added after which the test compound was again cumulatively added after roughly 20 minutes. The Ke value was calculated using the following calculation formula from the difference in the efficacies of both agonists.

μ receptor = biological target: T1, μ receptor (Mus musculus, UniProt P42866); experiment: Opioid activity test using an extracted mouse vas deferens preparation, Ke with naloxone; parameters: species or system male ddy mouse; settings: naloxone added
T1 construct: naloxone as mu antagonist (printed 'agonist')
Procedure: as §1, §2
(§3) Ke=[Conc. of added agonist]/(IC50 ratio-1)
(§4) IC50 ratio=IC50 in the presence of agonist/IC50 in the absence of agonist

δ receptor = biological target: T2, δ receptor (Mus musculus, UniProt P32300); parameters: species or system male ddy mouse; settings: mouse vas deferens, δ, NTI added
T2 construct: The vas deferens extracted from the animal was suspended in a Magnus tube; from tissue; host or cells: mouse (male ddy) vas deferens

κ receptor = biological target: T3, κ receptor (Mus musculus, UniProt P33534); experiment: Opioid activity test using an extracted mouse vas deferens preparation, Ke with norBNI; parameters: species or system male ddy mouse; settings: for receptor selectivity of agonist (κ): in words; for Ke, norBNI: κ, norBNI added
T3 construct: from tissue; host or cells: mouse (male ddy) vas deferens
Procedure: as §1, §2, §3, §4

[4] = tested on: acetic acid-induced writhing in ddy mice; experiment: animal or person; assay type: in vivo, 5 week old ddy mice; settings: for ED50: Mus musculus, sc, s.c. 15 minutes before acetic acid, read-out: ED50; for analgesic activity: s.c., in words
Procedure: 5 week old ddy mice were used in this test. After intraperitoneal administration of 0.1 ml of 0.6% aqueous acetic acid per 10 g of body weight, the number of writhing reactions that occurred in 10 minutes starting 10 minutes after administration was evaluated for the indicator. The test drug was administered subcutaneously into the backs of the animals 15 minutes before administration of acetic acid.

[5] = Diuretic action (urine output for 5 hours after physiological saline loading in rats); assay type: in vivo, male Wistar rats; settings: for ED (200% urine output) / ED (500% urine output): Rattus norvegicus, sc, 5 hours after saline 20 ml/kg p.o.; for ED (200% urine output): dose giving urine output of 200 (non-dosed group = 100); for ED (500% urine output): dose giving urine output of 500 (non-dosed group = 100); for Diuretic action (in words): s.c., from ED200 values
Method in brief: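 Doses reported as ED200/ED500, i.e. those raising 5 h urine output to 200 or 500 versus undosed rats set at 100. Subcutaneous dosing preceded an oral 20 ml/kg saline load by 30 min; male Wistar rats, 7-8 weeks, deprived of water 1 h beforehand.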

T1 sequence (P42866 whole entry): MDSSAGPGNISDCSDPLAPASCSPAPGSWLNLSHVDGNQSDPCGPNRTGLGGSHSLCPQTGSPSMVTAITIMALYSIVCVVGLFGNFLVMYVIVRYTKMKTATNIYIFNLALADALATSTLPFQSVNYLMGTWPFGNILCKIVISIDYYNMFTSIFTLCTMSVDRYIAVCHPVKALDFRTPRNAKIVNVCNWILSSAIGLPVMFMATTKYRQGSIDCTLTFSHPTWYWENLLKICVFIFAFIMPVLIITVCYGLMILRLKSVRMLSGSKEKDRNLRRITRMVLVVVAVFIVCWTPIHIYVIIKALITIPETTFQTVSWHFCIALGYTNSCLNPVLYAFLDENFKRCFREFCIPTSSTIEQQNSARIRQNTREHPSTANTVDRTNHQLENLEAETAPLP
T2 sequence (P32300 whole entry): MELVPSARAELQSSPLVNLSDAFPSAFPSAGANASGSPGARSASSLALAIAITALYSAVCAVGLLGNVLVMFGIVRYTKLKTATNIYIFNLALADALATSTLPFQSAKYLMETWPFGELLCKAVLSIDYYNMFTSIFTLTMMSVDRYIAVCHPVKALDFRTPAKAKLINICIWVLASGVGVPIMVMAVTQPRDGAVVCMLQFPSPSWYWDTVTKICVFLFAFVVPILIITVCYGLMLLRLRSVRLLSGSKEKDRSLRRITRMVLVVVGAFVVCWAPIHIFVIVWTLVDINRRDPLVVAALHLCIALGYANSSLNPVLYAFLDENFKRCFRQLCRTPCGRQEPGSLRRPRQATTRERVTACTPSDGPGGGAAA
T3 sequence (P33534 whole entry): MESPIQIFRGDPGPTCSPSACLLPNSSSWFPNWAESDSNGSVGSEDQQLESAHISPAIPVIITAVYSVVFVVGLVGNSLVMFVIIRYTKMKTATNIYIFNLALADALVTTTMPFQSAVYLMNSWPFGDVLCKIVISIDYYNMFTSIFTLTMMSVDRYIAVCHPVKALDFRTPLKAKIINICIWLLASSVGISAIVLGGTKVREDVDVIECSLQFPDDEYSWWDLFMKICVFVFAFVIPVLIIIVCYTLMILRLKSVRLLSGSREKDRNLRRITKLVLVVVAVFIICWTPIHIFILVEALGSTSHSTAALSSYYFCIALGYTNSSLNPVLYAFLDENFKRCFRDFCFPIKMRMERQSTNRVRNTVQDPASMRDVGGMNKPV

| SMILES | Protective action against cytotoxicity caused by glutamic acid (in words) [1] | EC50 [2] [nM] | IC50 [3] [nM] | Ke, Naloxone (μ receptor) [nM] | Ke, NTI (δ receptor) [nM] | receptor selectivity of agonist (κ) (κ receptor) | Ke, norBNI (κ receptor) [nM] | ED50 [4] [µg/kg] | ED (200% urine output) [5] [µg/kg] | ED (500% urine output) [5] [µg/kg] | Diuretic action (in words) [5] | analgesic activity [4] |
| --- | --- | --- | --- | --- | --- | --- | --- | --- | --- | --- | --- | --- |
| CN(C(=O)Cc1ccc2ccccc2c1)[C@@H]1CC[C@@]2(O)[C@H]3Cc4ccc(O)c5c4[C@@]2(CCN3CC2CC2)[C@H]1O5 [Compound 112, 17-cyclopropylmethyl-3,14β-dihydroxy-4,5α-epoxy-6β-(N-methyl-2-naphthylacetamido)morphinan.cndot.hydrochloride] | clearly demonstrated action that protects nerve cells from cytotoxicity caused by glutamic acid | 4240 |  |  |  |  |  |  |  |  |  |  |
| CN(CCc1ccc(Cl)c(Cl)c1)[C@@H]1CC[C@@]2(O)[C@H]3Cc4ccc(O)c5c4[C@@]2(CCN3CC2CC2)[C@H]1O5 [Compound 136, 17-Cyclopropylmethyl-3,14β-dihydroxy-4,5α-epoxy-6β-[N-methyl-N-2-(3,4-dichlorophenyl)ethylamino]morphinan.cndot.1.9 hydrochloride] | clearly demonstrated action that protects nerve cells from cytotoxicity caused by glutamic acid | 640 |  |  |  |  |  |  |  |  |  |  |
| CO[C@@H](C(=O)N(C)[C@H]1CC[C@@]2(O)[C@H]3Cc4ccc(O)c5c4[C@@]2(CCN3CC2CC2)[C@H]1O5)c1ccccc1 [Compound 30, 17-cyclopropylmethyl-3,14β-dihydroxy-4,5α-epoxy-6α-[(R)-N-methylmethoxyphenylacetamido]morphinan.cndot.hydrochloride] | clearly demonstrated action that protects nerve cells from cytotoxicity caused by glutamic acid | 7950 |  |  |  |  |  |  |  |  |  |  |
| CN(Cc1ccccc1)[C@@H]1CC[C@@]2(O)[C@H]3Cc4ccc(O)c5c4[C@@]2(CCN3CC2CC2)[C@H]1O5 [Compound 8, 6β-(N-Benzyl)methylamino-17-cyclopropylmethyl-4,5α-epoxy-3,14β-dihydroxymorphinan] | clearly demonstrated action that protects nerve cells from cytotoxicity caused by glutamic acid | 5750 |  |  |  |  |  |  |  |  |  |  |
| CN(CCc1ccc(Cl)c(Cl)c1)[C@H]1CC[C@@]2(O)[C@H]3Cc4ccc(O)c5c4[C@@]2(CCN3CC2CC2)[C@H]1O5 [Compound 135, 17-Cyclopropylmethyl-3,14β-dihydroxy-4,5α-epoxy-6α-[N-methyl-N-2-(3,4-dichlorophenyl)ethylamino]morphinan.cndot.1.8 hydrochloride] | clearly demonstrated action that protects nerve cells from cytotoxicity caused by glutamic acid | 290 |  |  |  |  |  |  |  |  |  |  |
| CN(C(=O)CCc1ccccc1)[C@H]1CC[C@@]2(O)[C@H]3Cc4ccc(O)c5c4[C@@]2(CCN3CC2CC2)[C@H]1O5 [Compound 22, 17-Cyclopropylmethyl-4,5α-epoxy-3,14β-dihydroxy-6α-(N-methyl-3-phenylpropionamido)morphinan.cndot.tartrate] |  |  | 1.2 | 800 | 545 | selective agonists for κ receptors | 5.53 | 5.1 | 0.95 | 17 | extremely strong diuretic action |  |
| COc1cccc(/C=C/C(=O)N(C)[C@@H]2CC[C@@]3(O)[C@H]4Cc5ccc(O)c6c5[C@@]3(CCN4CC3CC3)[C@H]2O6)c1 [Compound 63, 17-cyclopropylmethyl-3,14β-dihydroxy-4,5α-epoxy-6β-(N-methyl-3-methoxycinnamamido)morphinan.cndot.tartrate] |  |  | 0.746 | 60.9 | 96.9 | selective agonists for κ receptors | 1.60 | 1.1 | 3.8 | 309 |  | particularly strong analgesic activity |
| COc1cccc(C#CC(=O)N(C)[C@@H]2CC[C@@]3(O)[C@H]4Cc5ccc(O)c6c5[C@@]3(CCN4CC3CC3)[C@H]2O6)c1.O=C(O)C(O)C(O)C(=O)O [Compound 173, 17-cyclopropylmethyl-3,14β-dihydroxy-4,5α-epoxy-6β-[N-methyl-3-(3-methoxyphenyl)propiolamido]morphinan tartrate] |  |  | 0.02 | 19.6 | 21.3 | selective agonists for κ receptors | 0.11 | 11 | 27.5 | 1550 |  |  |
| CN(C(=O)OCc1ccc([N+](=O)[O-])cc1)[C@H]1CC[C@@]2(O)[C@H]3Cc4ccc(O)c5c4[C@@]2(CCN3CC2CC2)[C@H]1O5 [Compound 43, 17-cyclopropylmethyl-3,14β-dihydroxy-4,5α-epoxy-6α-(N-methyl-4-nitrobenzyloxycarbamido)morphinan.cndot.hydrochloride] |  |  | 0.65 | 409 | 22.5 | selective agonists for κ receptors | 5.31 | 5.5 | 0.54 | 4.4 | extremely strong diuretic action |  |
| O=C(Cc1ccc(Cl)c(Cl)c1)N[C@H]1CC[C@@]2(O)[C@H]3Cc4ccc(O)c5c4[C@@]2(CCN3CC2CC2)[C@H]1O5 [Compound 52, 17-cyclopropylmethyl-4,5α-epoxy-3,14β-dihydroxy-6α-(3,4-dichlorophenylacetoamido)morphinan.cndot.hydrochloride] | clearly demonstrated action that protects nerve cells from cytotoxicity caused by glutamic acid | 1710 |  |  |  |  |  |  |  |  |  |  |
| CN(C(=O)Cc1cccc(C(F)(F)F)c1)[C@@H]1CC[C@@]2(O)[C@H]3Cc4ccc(O)c5c4[C@@]2(CCN3CC2CC2)[C@H]1O5 [Compound 116, 17-cyclopropylmethyl-3,14β-dihydroxy-4,5α-epoxy-6β-(N-methyl-3-trifluoromethylphenylacetamido)morphinan.cndot.hydrochloride] | clearly demonstrated action that protects nerve cells from cytotoxicity caused by glutamic acid | 2370 |  |  |  |  |  |  |  |  |  |  |
| CN(C(=O)OCc1ccccc1)[C@H]1CC[C@@]2(O)[C@H]3Cc4ccc(O)c5c4[C@@]2(CCN3CC2CC2)[C@H]1O5 [Compound 42, 17-cyclopropylmethyl-3,14β-dihydroxy-4,5α-epoxy-6α-(N-methylbenzyloxycarbamido)morphinan.cndot.tartrate] |  |  | 0.251 | 186 | 63.5 | selective agonists for κ receptors | 0.905 | 1.36 | 0.85 | 6.1 | extremely strong diuretic action | particularly strong analgesic activity |
| CN(C(=O)CCCc1ccccc1)[C@@H]1CC[C@@]2(O)[C@H]3Cc4ccc(O)c5c4[C@@]2(CCN3CC2CC2)[C@H]1O5 [Compound 150, 17-cyclopropylmethyl-4,5α-epoxy-3,14β-dihydroxy-6β-(N-methyl-4-phenylbutanoylamido)morphinan tartrate] |  |  | 1.67 | 137 | 55.6 | selective agonists for κ receptors | 0.303 | 35 | 42.9 | 762 |  |  |
| CN(C(=O)COc1ccccc1)[C@H]1CC[C@@]2(O)[C@H]3Cc4ccc(O)c5c4[C@@]2(CCN3CC2CC2)[C@H]1O5 [Compound 38, 17-cyclopropylmethyl-3,14β-dihydroxy-4,5α-epoxy-6α-(N-methylphenoxyacetamido)morphinan.cndot.hydrochloride] |  |  | 0.349 | 411 | 16.6 | selective agonists for κ receptors | 4.65 | 3.52 | 3.8 | 281 |  |  |
